From PMC7374170, “TRIB3-EGFR interaction promotes lung cancer progression and defines a therapeutic target” (Nature Communications, 2020)
Read-outs that look alike come from different tables or passages of the source. Values belong to the molecule of their own block, whether it stands above or below them. Bridge positions count the residues as written; N and C are the ends. Square brackets hold non-standard residues; d marks the D form. Peptide text beside a SMILES is read from it. S5 = C=CCCC[C@](C)(N)C(=O)O

Columns and labels:
[1] = tested on: NCI-H1975 cells; experiment: NCI-H1975 subcutaneous xenograft (tumor growth, tumor weight, metastasis); format: in vivo, BALB/c nude mice; details: dose not given
[2] = tested on: NCI-H1975 cells; experiment: Immunoblot of EGFR, HER2 and receptor tyrosine kinases, NCI-H1975 cells; format: cell-based, human
[3] = tested on: EGFR signaling proteins in xenograft tumors; experiment: Immunoblot / CO-IP of xenograft tumor tissue; format: in vivo; details: NCI-H1975 inoculated mice, long-term treatment
[4] = tested on: colonic mucosal epithelial cells (NCM460)
[5] = In vitro plasma stability assay; details: normalised to 100 at 0 min
[6] = In vivo bio-distribution and clearance of FAM-labeled peptide (IVIS); details: FAM-labeled peptides, bolus tail vein injection 2 mg kg-1, male athymic BALB/c nude mice
Experimental: detected by Exactive™ Plus Orbitrap (Thermo Fisher Scientific, USA).
In vitro plasma stability assay
The rat blood was collected by
The plasma solutions were incubated […]
ionization mass spectrometric detection. The values represent the mean of 3 independent assays.
In vivo bio-distribution and clearance of peptide
OH, USA). Data was analyzed by the built-in software.

[7] = tested on: keratinocytes (HaCaT)
[8] = tested on: bronchial epithelial cells (BEAS-2B)
[9] = parameters: species or system BALB/c nude mice; details: mouse, in vivo
Experimental: twice a week for 4 weeks. […] Data are means ± SEM of 3 independent assays. […] CALM: Calmodulin. […] Lung cancer cells were isolated from PDX mice by using the […] One week after tumor inoculation, mice were […] or pemetrexed (100 mg kg-1, once a day). Tumor growth was monitored twice weekly with a caliper. Tumor volume (T ) was calculated using the formula: T =0.5×L×W 2. Mice survival V V […] signs of distress. […] Generation of Stable Cell Lines To establish cell populations stably expressing TRIB3-shRNA1/2, or the Control-shRNA, cells were transfected with TRIB3-shRNA1/2 or the Control-shRNA expressing plasmids. Stable transfectants were selected in medium containing hygromycin. […] (Supplementary Fig. 9a).

[10] = tested on: cell surface EGFR in NCI-H157 cells; experiment: Cell surface EGFR by flow cytometry, NCI-H157; format: cell-based, human; details: TRIB3-overexpressing NCI-H157 cells, 10 µM monensin 4 hr, EGF 100 ng ml-1 1 hr
Experimental: Supplementary Figure 2 Overexpression of TRIB3 promotes EGFR recycling. […]
a, NCI-H157 cells and NCI-H157 cells stably expressed TRIB3 were non-stimulated or EGF […]
(100 ng ml-1) stimulated for indicated times. Co-localization of EGFR with EEA1 was analyzed […]
with confocal microscopy, quantification of EGFR and EEA1 colocalization was shown as […]
Pearson’s coefﬁcient. Data are means ± SEM of 3 independent assays. b, Gating strategy to […]
determine surface EGFR level presented in figure 2d and supplementary figure 2c. c, […]
Quantitative analyses of cell surface EGFR in NCI-H157 cells stably expressed Empty-Vector […]
or TRIB3-HA expression plasmid. Cells were pre-incubated with DM SO or 10 µM monensin […]
cell surface was detected by flow cytometry analysis. […]
detected in NCI-H157 cells with or without TRIB3-HA stably ectopic expression (d); or in NCI- […]
localization of EGFR with Rab11 and LAMP1. Quantification of EGFR/Rab11 or […]
3 independent assays. Statistical significance between two groups was determined with two- […]
tailed Student’s t-test. Statistical significance among groups was determined by one-way ANOVA test. […]
Live cells were stained with Alexa-Fluro 488 anti-EGFR antibody (Santa Cruz, R-1, #sc-101 AF488, 1:100). Analysis was performed using a PARTEC EPICSXL (Germany) and data was analyzed using FCS Express 6. […]

[11] = tested on: A549 cells; experiment: CCK-8 cell viability / cytotoxicity, A549; format: cell-based; details: Homo sapiens, read-out: IC50 of pemetrexed, A549, before sensitization
[12] = tested on: NCI-H1975 cells; experiment: CCK-8 cell viability / cytotoxicity, NCI-H1975; format: cell-based; details: Homo sapiens
[13] = tested on: cell surface EGFR in A549 cells; experiment: Cell surface EGFR by flow cytometry, A549; format: cell-based, human
Experimental: Fig. 2 TRIB3 promotes EGFR recycling to enhance its stability and signaling activity. a Control or TRIB3-silenced A549 cells were treated with cycloheximide (CHX) (10 µg ml^−1) at indicated intervals and protein stability of EGFR was analyzed by IB. Data are means ± SEM of four independent assays. b A549 cells stably expressed control-shRNA or TRIB3-shRNA plasmid were stimulated with or without EGF (100 ng ml^−1) for 1 h. Indicated proteins were analyzed by IB analysis. Data represent means ± SEM of three independent assays. c Confocal microscopy images show the distribution of EGFR and early endosome antigen 1 (EEA-1) in control or TRIB3-silenced A549 cells before and after 0.5 or 1 h of EGF (100 ng ml^−1) stimulation. Quantification of EGFR and EEA-1 colocalization was shown as Pearson’s coefficient. Data are means ± SEM of three independent assays. d Quantitative analyses of cell surface EGFR in A549 cells stably expressed control-shRNA or TRIB3-shRNA1. Cells were preincubated with DMSO or 10 μM monensin for 4 h, and then treated with or without EGF (100 ng ml^−1) for another 1 h. The Mean Fluorescence Intensity (MFI) of EGFR on cell surface was detected by flow cytometry analysis. Top: representative flow cytometry data. Bottom: the data were normalized to A549/control-shRNA cells without EGF stimulation, which was considered as 100% MFI signal. Data are means ± SEM of three independent assays. e EGFR recycling was detected in A549 cells stably expressed control-shRNA or TRIB3-shRNA1 plasmid. Data are means ± SEM of three independent assays. f Colocalization analysis of EGFR with Rab11 and LAMP-1 before or after 30 min EGF treatment in control and TRIB3-silenced A549 cells. Quantification of EGFR/Rab11 or EGFR/LAMP-1 colocalization was shown as Pearson’s coefficient. Data represent means ± SEM of three independent assays. Statistical significance between two groups was determined with two-tailed Student’s t test. Statistical significance among groups was determined by one-way ANOVA test. Source data are provided as a Source Data file. […]
Live cells were stained with Alexa-Fluro 488 anti-EGFR antibody (Santa Cruz, R-1, #sc-101
AF488, 1:100). Analysis was performed using a PARTEC EPICSXL (Germany) and data was
analyzed using FCS Express 6. […]

[14] = H1975 cells, treatment for 12 hr

Molecule: C=CC(=O)Nc1cc(Nc2nccc(-c3cn(C)c4ccccc34)n2)c(OC)cc1N(C)CCN(C)C [AZD9291]
Tumor Weight ([1]; animal 1): 0.09 g
Tumor Weight ([1]; animal 2): 0.11 g
Tumor Weight ([1]; animal 3): 0.04 g
Tumor Weight ([1]; animal 4): 0.05 g
Tumor Weight ([1]; animal 5): 0.07 g
Tumor Weight ([1]; animal 6): 0.08 g
Tumor Weight ([1]; animal 7): 0.02 g
Tumor Weight ([1]; animal 8): 0.08 g
expression of pEGFR T654, PKCα, TRIB3 and EGFR [2, 14]: had no effect
pEGFR Y1068 [2, 14]: markedly reduced
phosphorylation and expression of HER2 ([2]; NCI-H1975 cells, 5 µM peptide or 0.5 µM AZD9291, 24 hr): suppressive effect on HER2 phosphorylation
expression / phosphorylation of STAT3, STAT5 (and ERK1/2) in xenograft tumor tissue [3]: upregulated the expression and phosphorylation of STAT3, STAT5, and ERK1/2
expression of EGFR and TRIB3 in xenograft tumor tissue [3]: reduced TRIB3 and EGFR expression

peptide remaining ([5]; 450 min, replicate 1): 113.749
peptide remaining ([5]; 450 min, replicate 2): 125.15
peptide remaining ([5]; 450 min, replicate 3): 119.761
peptide remaining ([5]; 540 min, replicate 1): 115.041
peptide remaining ([5]; 540 min, replicate 2): 121.067
peptide remaining ([5]; 540 min, replicate 3): 118.562
peptide remaining ([5]; 630 min, replicate 1): 106.23
peptide remaining ([5]; 630 min, replicate 2): 116.53
peptide remaining ([5]; 630 min, replicate 3): 116.365
peptide remaining ([5]; 720 min, replicate 1): 109.883
peptide remaining ([5]; 720 min, replicate 2): 113.113
peptide remaining ([5]; 720 min, replicate 3): 112.463
half-clearance rate in vivo compared with Pep2-JGZ [6]: slower half-clearance rate
EGFR and HER2 expression in the heart [9]: did not cause reductions in
Molecule: CC[C@H](C)[C@@H]1NC(=O)[C@@](C)(NC(=O)[C@H](CC(C)C)NC(=O)[C@H](CC(C)C)NC(=O)[C@H](C)NC(=O)[C@H](CCC(N)=O)NC(=O)[C@@H](N)CC(N)=O)CCCC=CCCC[C@@](C)(C(=O)N[C@H](C(=O)N[C@@H](CCC(=O)O)C(=O)N[C@@H](Cc2ccccc2)C(=O)N[C@@H](CCCCN)C(=O)N[C@@H](CCCCN)C(=O)O)[C@@H](C)O)NC(=O)[C@H](CCCNC(=N)N)NC(=O)[C@H](CC(C)C)NC1=O [SAH-JGZ4] (H-NQALL[S5]ILR[S5]TEFKK-OH; staple 6-10)
cell viability, NCM460 [4]: had no effect on the cell viability
cell viability, HaCaT [7]: had no effect on the cell viability
cell viability, BEAS-2B [8]: had no effect on the cell viability

Molecule: CC[C@@]1([C@@H]2O[C@@H]([C@H]3O[C@@](O)(CO)[C@H](C)C[C@@H]3C)C[C@@H]2C)CC[C@H]([C@]2(C)CC[C@]3(C[C@H](O)[C@@H](C)[C@@H]([C@@H](C)[C@@H](OC)[C@H](C)C(=O)O)O3)O2)O1 [monensin]
EGFR membrane level [10]: reduced the EGFR membrane level

Molecule: Nc1nc2[nH]cc(CCc3ccc(C(=O)N[C@@H](CCC(=O)O)C(=O)O)cc3)c2c(=O)[nH]1 [pemetrexed]
IC50 [11]: 245 nM
IC50 ([12]; NCI-H1975, read-out: IC50 of pemetrexed, H1975, sensitized by SAH-JGZ4): 793 nM
IC50 ([12]; NCI-H1975, read-out: IC50 of pemetrexed, H1975, before sensitization): 3170 nM

Molecule: EGF: epidermal growth factor used as stimulus, 100 ng ml−1
Cell Surface EGFR(%MFI) ([13]; A549/Control-shRNA, DMSO or 10 μM monensin 4 h, then EGF 100 ng ml−1 1 h, flow cytometry, A549/control-shRNA without EGF = 100%, replicate 1): 80.5481 %MFI
Cell Surface EGFR(%MFI) ([13]; A549/Control-shRNA, same treatment, replicate 2): 86.3646 %MFI
Cell Surface EGFR(%MFI) ([13]; A549/Control-shRNA, same treatment, replicate 3): 89 %MFI
Cell Surface EGFR(%MFI) ([13]; A549/TRIB3-shRNA, DMSO or 10 μM monensin 4 h, then EGF 100 ng ml−1 1 h, flow cytometry, A549/control-shRNA without EGF = 100%, replicate 1): 27.82 %MFI
Cell Surface EGFR(%MFI) ([13]; A549/TRIB3-shRNA, same treatment, replicate 2): 26.66 %MFI
Cell Surface EGFR(%MFI) ([13]; A549/TRIB3-shRNA, same treatment, replicate 3): 25.66 %MFI
